Source: patent US9637473B2, “Acrylamide derivatives as antimalarial agents” (priority 2013, dated 2017)
pIC50: −log10 of the molar value. Structures can show the parent of a compound that is named as a salt.

Each compound was assayed on P. Falciparum NF54 (assay: Plasmodium falciparum in vitro assay ([3H]-hypoxanthine incorporation)). Details: Plasmodium falciparum, Erythrocyte, P. Falciparum NF54, erythrocytic stages in human red blood cells, 50% human serum.
Format: cell-based
Method in brief: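 Activity against the blood stages of Plasmodium falciparum growing in human red blood cells was measured by how much [3H]-hypoxanthine the parasites took up. Filters were dried, sealed in plastic foil containing 10 mL of scintillation fluid, and read on a Betaplate liquid scintillation counter. IC50 values came from sigmoidal inhibition curves fitted in Microsoft Excel.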

Row | SMILES | pIC50
1 | COc1cccc(/C=C/C(=O)N(Cc2ccc(N(C)c3ccncc3)cc2)C2CCN(Cc3ccccc3)CC2)c1 [Example 150, (E)-N-(1-Benzyl-piperidin-4-yl)-3-(3-methoxy-phenyl)-N-[4-(methyl-pyridin-4-yl-amino)-benzyl]-acrylamide] | 6.53
2 | Cc1cc(Nc2ccc(CN(C(=O)/C=C/c3ccc(C(F)(F)F)cc3)C3CCN(Cc4cnn(C)c4)CC3)cc2)ccn1 [Example 50, (E)-N-[1-(1-Methyl-1H-pyrazol-4-ylmethyl)-piperidin-4-yl]-N-[4-(2-methyl-pyridin-4-ylamino)-benzyl]-3-(4-trifluoromethyl-phenyl)-acrylamide] | 7.04
3 | CCN(CC)Cc1cc(CN2CCC(N(Cc3ccc(Nc4ccnc(C)c4)cc3)C(=O)/C=C/c3ccc(C(F)(F)F)cc3)CC2)ccc1O [Example 54, (E)-N-[1-(3-Diethylaminomethyl-4-hydroxy-benzyl)-piperidin-4-yl]-N-[4-(2-methyl-pyridin-4-ylamino)-benzyl]-3-(4-trifluoromethyl-phenyl)-acrylamide] | > 8.10
4 | Cc1cc(Nc2ccc(CN(C(=O)/C=C/c3ccc(C(F)(F)F)cc3)C3CCN(Cc4c(C)noc4C)CC3)cc2)ccn1 [Example 44, (E)-N-[1-(3,5-Dimethyl-isoxazol-4-ylmethyl)-piperidin-4-yl]-N-[4-(2-methyl-pyridin-4-ylamino)-benzyl]-3-(4-trifluoromethyl-phenyl)-acrylamide] | 7.19
5 | CN1CCC(N2CCC(N(Cc3ccc(Nc4ccncc4)cc3)C(=O)/C=C/c3ccc(OC(F)(F)F)cc3)CC2)CC1 [Example 118, (E)-N-(1′-Methyl-[1,4′]bipiperidinyl-4-yl)-N-[4-(pyridin-4-ylamino)-benzyl]-3-(4-trifluoromethoxy-phenyl)-acrylamide] | 7.08
6 | CN1CCC(N2CCC[C@@H](N(Cc3ccc(N(C)c4ccncc4)cc3)C(=O)/C=C/c3ccc(C(F)(F)F)cc3)C2)CC1 [Example 56, (R,E)-N-(4-(methyl(pyridin-4-yl)amino)benzyl)-N-(1′-methyl-[1,4′-bipiperidin]-3-yl)-3-(4-(trifluoromethyl)phenyl)acrylamide] | 7.96
7 | CN(c1ccncc1)c1ccc(CN(C(=O)/C=C/c2ccc(C(F)(F)F)cc2)C2CCN(CC(c3ccccc3)c3ccccc3)CC2)cc1 [Example 15, (E)-N-[1-(2,2-Diphenyl-ethyl)-piperidin-4-yl]-N-[4-(methyl-pyridin-4-yl-amino)-benzyl]-3-(4-trifluoromethyl-phenyl)-acrylamide] | 7.39
8 | O=C(/C=C/c1ccc(C(F)(F)F)cc1)N(Cc1ccc(Nc2cc(C(F)(F)F)nc3c(C(F)(F)F)cccc23)cc1)C1CCN(C2CCCC2)CC1 [Example 89, (E)-N-[4-(2,8-Bis-trifluoromethyl-quinolin-4-ylamino)-benzyl]-N-(1-cyclopentyl-piperidin-4-yl)-3-(4-trifluoromethyl-phenyl)-acrylamide] | 6.47
9 | Cc1ccc(/C=C/C(=O)N(Cc2ccc(N(C)c3ccncc3)cc2)C2CCN(Cc3ccccc3)CC2)cc1 [Example 158, (E)-N-(1-Benzyl-piperidin-4-yl)-N-[4-(methyl-pyridin-4-yl-amino)-benzyl]-3-p-tolyl-acrylamide] | 6.72
10 | CN1CCC(N2CCC(N(Cc3ccc(N(C)c4ccncc4)cc3)C(=O)/C=C/c3ccc(C(F)(F)F)cc3)CC2)CC1 [Example 26, (E)-N-(1′-Methyl-[1,4′]bipiperidinyl-4-yl)-N-[4-(methyl-pyridin-4-yl-amino)-benzyl]-3-(4-trifluoromethyl-phenyl)-acrylamide] | 7.85
11 | Cc1cc(Nc2ccc(CN(C(=O)/C=C/c3ccc(C(F)(F)F)cc3)C3CCN(Cc4cnc5ccccn45)CC3)cc2)ccn1 [Example 38, (E)-N-(1-Imidazo[1,2-a]pyridin-3-ylmethyl-piperidin-4-yl)-N-[4-(2-methyl-pyridin-4-ylamino)-benzyl]-3-(4-trifluoromethyl-phenyl)-acrylamide] | 7.00
12 | Cc1nn(C)c(C)c1/C=C/C(=O)N(Cc1ccc(N(C)c2ccncc2)cc1)C1CCN(Cc2ccccc2)CC1 [Example 165, (E)-N-(1-Benzyl-piperidin-4-yl)-N-[4-(methyl-pyridin-4-yl-amino)-benzyl]-3-(1,3,5-trimethyl-1H-pyrazol-4-yl)-acrylamide] | 6.72
13 | O=C(/C=C/c1ccc(C(F)(F)F)cc1)N(Cc1ccc(Nc2ccncn2)cc1)C1CCN(C2CCCC2)CC1 [Example 92, (E)-N-(1-Cyclopentyl-piperidin-4-yl)-N-[4-(pyrimidin-4-ylamino)-benzyl]-3-(4-trifluoromethyl-phenyl)-acrylamide] | 6.57
14 | Cc1cc(Nc2cccc(CN(C(=O)/C=C/c3ccc(C(F)(F)F)cc3)C3CCN(C(C)C)CC3)n2)ccn1 [Example 129, (E)-N-(1-Isopropyl-piperidin-4-yl)-N-[6-(2-methyl-pyridin-4-ylamino)-pyridin-2-ylmethyl]-3-(4-trifluoromethyl-phenyl)-acrylamide formate] | 7.68
15 | CC(C)N1CCC(N(Cc2cccc(Nc3ccncc3F)c2)C(=O)/C=C/c2ccc(C(F)(F)F)cc2)CC1 [Example 124, (E)-N-[3-(3-Fluoro-pyridin-4-ylamino)-benzyl]-N-(1-isopropyl-piperidin-4-yl)-3-(4-trifluoromethyl-phenyl)-acrylamide formate] | 6.52
16 | O=C(/C=C/c1ccc(C(F)(F)F)cc1)N(Cc1ccc(-c2cncnc2)cc1)C1CCN(C2CCCC2)CC1 [Example 204, (E)-N-(1-Cyclopentyl-piperidin-4-yl)-N-(4-pyrimidin-5-yl-benzyl)-3-(4-trifluoromethyl-phenyl)-acrylamide] | 6.37
17 | CN1CCC(N2CCC[C@H](N(Cc3ccc(N(C)c4ccncc4)cc3)C(=O)/C=C/c3ccc(C(F)(F)F)cc3)C2)CC1 [Example 55, (S,E)-N-(4-(methyl(pyridin-4-yl)amino)benzyl)-N-(1′-methyl-[1,4′-bipiperidin]-3-yl)-3-(4-(trifluoromethyl)phenyl)acrylamide] | 7.92
18 | O=C(/C=C/c1ccc(C(F)(F)F)cc1)N(Cc1ccc(Nc2ccncc2)cc1)C1CCN(C2CCCC2)CC1 [Example 86, (E)-N-(1-Cyclopentyl-piperidin-4-yl)-N-[4-(pyridin-4-ylamino)-benzyl]-3-(4-trifluoromethyl-phenyl)-acrylamide] | 7.37
19 | CC(C)CCN1CCC(N(Cc2ccc(N(C)c3ccncc3)cc2)C(=O)/C=C/c2ccc(C(F)(F)F)cc2)CC1 [Example 8, (E)-N-[1-(3-Methyl-butyl)-piperidin-4-yl]-N-[4-(methyl-pyridin-4-yl-amino)-benzyl]-3-(4-trifluoromethyl-phenyl)-acrylamide] | 7.37
20 | Cc1nccc(Nc2ccc(CN(C(=O)/C=C/c3ccc(C(F)(F)F)cc3)C3CCN(C4CCCC4)CC3)cn2)n1 [Example 108, (E)-N-(1-Cyclopentyl-piperidin-4-yl)-N-[6-(2-methyl-pyrimidin-4-ylamino)-pyridin-3-ylmethyl]-3-(4-trifluoromethyl-phenyl)-acrylamide] | 6.37
21 | CN(c1ccncc1)c1ccc(CN(C(=O)/C=C/c2ccc(C(F)(F)F)cc2)C2CCCN(C3CCCC3)CC2)cc1 (racemic) [Example 60, (±)-(E)-N-(1-cyclopentylazepan-4-yl)-N-(4-(methyl(pyridin-4-yl)amino)benzyl)-3-(4-(trifluoromethyl)phenyl)acrylamide] | 7.10
